According to ChEMBL document CHEMBL5442219:

Key:
Details in all cases: Compound concentration 10 µM
[1] = molecular target: Beta-2 adrenergic receptor (Homo sapiens) (UniProt P07550)
Description: PDSP Primary Binding target: ADRB2 - Compounds are tested at 10 uM concentration, plate are incubated at room temperature in the dark for 90 minutes. Reaction are stopped by vacuum filtration onto 0.3% polyethyleneimine soaked filter mats using Filtermate harvester. Scintilation cocktail is then melted onto microwave-dried filters on a hot plate and the radio activity is counted in Microbia counter.

[2] = molecular target: Sigma non-opioid intracellular receptor 1 (Homo sapiens) (UniProt Q99720)
Description: PDSP Primary Binding target: SIGMAR1 - Compounds are tested at 10 uM concentration, plate are incubated at room temperature in the dark for 90 minutes. Reaction are stopped by vacuum filtration onto 0.3% polyethyleneimine soaked filter mats using Filtermate harvester. Scintilation cocktail is then melted onto microwave-dried filters on a hot plate and the radio activity is counted in Microbia counter.

[3] = molecular target: T1, Alpha-2C adrenergic receptor (Homo sapiens) (UniProt P18825)
T1 sequence (whole entry): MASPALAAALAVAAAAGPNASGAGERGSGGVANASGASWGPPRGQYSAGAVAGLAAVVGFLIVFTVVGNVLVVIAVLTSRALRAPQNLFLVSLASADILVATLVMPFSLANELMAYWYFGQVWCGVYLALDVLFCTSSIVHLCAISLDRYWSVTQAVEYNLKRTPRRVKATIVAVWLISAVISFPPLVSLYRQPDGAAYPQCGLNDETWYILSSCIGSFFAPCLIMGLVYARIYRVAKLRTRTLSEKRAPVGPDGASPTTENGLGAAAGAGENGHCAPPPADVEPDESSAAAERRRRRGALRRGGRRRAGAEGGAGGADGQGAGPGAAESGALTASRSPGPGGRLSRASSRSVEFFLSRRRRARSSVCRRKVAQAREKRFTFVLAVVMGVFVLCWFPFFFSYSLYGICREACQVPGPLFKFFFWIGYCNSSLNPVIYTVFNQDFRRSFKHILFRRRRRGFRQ
Description: PDSP Primary Binding target: ADRA2C - Compounds are tested at 10 uM concentration, plate are incubated at room temperature in the dark for 90 minutes. Reaction are stopped by vacuum filtration onto 0.3% polyethyleneimine soaked filter mats using Filtermate harvester. Scintilation cocktail is then melted onto microwave-dried filters on a hot plate and the radio activity is counted in Microbia counter.

[4] = molecular target: 5-hydroxytryptamine receptor 1E (Homo sapiens) (UniProt P28566)
Description: PDSP Primary Binding target: HTR1E - Compounds are tested at 10 uM concentration, plate are incubated at room temperature in the dark for 90 minutes. Reaction are stopped by vacuum filtration onto 0.3% polyethyleneimine soaked filter mats using Filtermate harvester. Scintilation cocktail is then melted onto microwave-dried filters on a hot plate and the radio activity is counted in Microbia counter.

[5] = molecular target: D(2) dopamine receptor (Homo sapiens) (UniProt P14416)
Description: PDSP Primary Binding target: DRD2 - Compounds are tested at 10 uM concentration, plate are incubated at room temperature in the dark for 90 minutes. Reaction are stopped by vacuum filtration onto 0.3% polyethyleneimine soaked filter mats using Filtermate harvester. Scintilation cocktail is then melted onto microwave-dried filters on a hot plate and the radio activity is counted in Microbia counter.

[6] = molecular target: T2, Muscarinic acetylcholine receptor M5 (Homo sapiens) (UniProt P08912)
T2 sequence (whole entry): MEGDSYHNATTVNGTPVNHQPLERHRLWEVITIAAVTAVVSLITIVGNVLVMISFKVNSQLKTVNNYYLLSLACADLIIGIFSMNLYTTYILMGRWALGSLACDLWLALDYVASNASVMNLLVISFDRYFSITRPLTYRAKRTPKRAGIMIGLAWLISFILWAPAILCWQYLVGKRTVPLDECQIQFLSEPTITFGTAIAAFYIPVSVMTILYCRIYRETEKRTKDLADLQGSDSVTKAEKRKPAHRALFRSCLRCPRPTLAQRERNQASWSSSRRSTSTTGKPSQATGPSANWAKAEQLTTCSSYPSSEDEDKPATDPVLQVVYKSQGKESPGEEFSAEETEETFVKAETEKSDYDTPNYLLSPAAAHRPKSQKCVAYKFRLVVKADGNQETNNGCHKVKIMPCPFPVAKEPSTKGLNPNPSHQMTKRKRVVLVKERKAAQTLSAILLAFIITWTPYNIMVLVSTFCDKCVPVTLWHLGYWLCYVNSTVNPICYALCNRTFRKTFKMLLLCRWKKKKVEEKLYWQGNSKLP
Description: PDSP Primary Binding target: CHRM5 - Compounds are tested at 10 uM concentration, plate are incubated at room temperature in the dark for 90 minutes. Reaction are stopped by vacuum filtration onto 0.3% polyethyleneimine soaked filter mats using Filtermate harvester. Scintilation cocktail is then melted onto microwave-dried filters on a hot plate and the radio activity is counted in Microbia counter.

[7] = molecular target: T3, Alpha-2B adrenergic receptor (Homo sapiens) (UniProt P18089)
T3 sequence (whole entry): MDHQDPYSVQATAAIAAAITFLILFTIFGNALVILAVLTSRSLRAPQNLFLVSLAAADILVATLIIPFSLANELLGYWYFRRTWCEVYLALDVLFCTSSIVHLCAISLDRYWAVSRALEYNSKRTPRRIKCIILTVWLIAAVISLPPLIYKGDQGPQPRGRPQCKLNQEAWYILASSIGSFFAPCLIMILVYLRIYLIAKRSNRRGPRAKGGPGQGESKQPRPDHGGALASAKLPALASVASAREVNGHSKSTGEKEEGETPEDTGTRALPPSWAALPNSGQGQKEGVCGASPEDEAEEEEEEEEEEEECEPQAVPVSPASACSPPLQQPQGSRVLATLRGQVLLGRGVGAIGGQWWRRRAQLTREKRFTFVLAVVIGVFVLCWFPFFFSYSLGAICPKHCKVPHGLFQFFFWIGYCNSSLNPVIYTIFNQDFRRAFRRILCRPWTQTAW
Description: PDSP Primary Binding target: ADRA2B - Compounds are tested at 10 uM concentration, plate are incubated at room temperature in the dark for 90 minutes. Reaction are stopped by vacuum filtration onto 0.3% polyethyleneimine soaked filter mats using Filtermate harvester. Scintilation cocktail is then melted onto microwave-dried filters on a hot plate and the radio activity is counted in Microbia counter.

[8] = molecular target: T4, Alpha-1D adrenergic receptor (Homo sapiens) (UniProt P25100)
T4 sequence (whole entry): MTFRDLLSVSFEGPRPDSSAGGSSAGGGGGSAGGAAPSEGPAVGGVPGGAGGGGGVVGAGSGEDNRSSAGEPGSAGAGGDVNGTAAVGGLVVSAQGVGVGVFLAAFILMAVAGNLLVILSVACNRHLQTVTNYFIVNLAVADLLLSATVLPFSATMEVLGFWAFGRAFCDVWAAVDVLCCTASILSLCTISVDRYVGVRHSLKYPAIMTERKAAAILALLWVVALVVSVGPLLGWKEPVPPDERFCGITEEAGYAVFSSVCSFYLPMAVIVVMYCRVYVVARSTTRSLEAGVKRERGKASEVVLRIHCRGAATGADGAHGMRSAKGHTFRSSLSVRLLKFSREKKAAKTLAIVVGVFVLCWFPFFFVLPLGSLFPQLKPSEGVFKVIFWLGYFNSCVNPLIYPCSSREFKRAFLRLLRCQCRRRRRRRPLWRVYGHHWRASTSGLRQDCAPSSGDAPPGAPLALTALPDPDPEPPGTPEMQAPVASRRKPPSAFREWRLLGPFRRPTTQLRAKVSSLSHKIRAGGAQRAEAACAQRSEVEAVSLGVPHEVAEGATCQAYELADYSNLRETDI
Description: PDSP Primary Binding target: ADRA1D - Compounds are tested at 10 uM concentration, plate are incubated at room temperature in the dark for 90 minutes. Reaction are stopped by vacuum filtration onto 0.3% polyethyleneimine soaked filter mats using Filtermate harvester. Scintilation cocktail is then melted onto microwave-dried filters on a hot plate and the radio activity is counted in Microbia counter.

[9] = molecular target: Sodium-dependent noradrenaline transporter (Homo sapiens) (UniProt P23975)
Description: PDSP Primary Binding target: SLC6A2 - Compounds are tested at 10 uM concentration, plate are incubated at room temperature in the dark for 90 minutes. Reaction are stopped by vacuum filtration onto 0.3% polyethyleneimine soaked filter mats using Filtermate harvester. Scintilation cocktail is then melted onto microwave-dried filters on a hot plate and the radio activity is counted in Microbia counter.

[10] = molecular target: 5-hydroxytryptamine receptor 1B (Homo sapiens) (UniProt P28222)
Description: PDSP Primary Binding target: HTR1B - Compounds are tested at 10 uM concentration, plate are incubated at room temperature in the dark for 90 minutes. Reaction are stopped by vacuum filtration onto 0.3% polyethyleneimine soaked filter mats using Filtermate harvester. Scintilation cocktail is then melted onto microwave-dried filters on a hot plate and the radio activity is counted in Microbia counter.

[11] = molecular target: T5, Alpha-2A adrenergic receptor (Homo sapiens) (UniProt P08913)
T5 sequence (whole entry): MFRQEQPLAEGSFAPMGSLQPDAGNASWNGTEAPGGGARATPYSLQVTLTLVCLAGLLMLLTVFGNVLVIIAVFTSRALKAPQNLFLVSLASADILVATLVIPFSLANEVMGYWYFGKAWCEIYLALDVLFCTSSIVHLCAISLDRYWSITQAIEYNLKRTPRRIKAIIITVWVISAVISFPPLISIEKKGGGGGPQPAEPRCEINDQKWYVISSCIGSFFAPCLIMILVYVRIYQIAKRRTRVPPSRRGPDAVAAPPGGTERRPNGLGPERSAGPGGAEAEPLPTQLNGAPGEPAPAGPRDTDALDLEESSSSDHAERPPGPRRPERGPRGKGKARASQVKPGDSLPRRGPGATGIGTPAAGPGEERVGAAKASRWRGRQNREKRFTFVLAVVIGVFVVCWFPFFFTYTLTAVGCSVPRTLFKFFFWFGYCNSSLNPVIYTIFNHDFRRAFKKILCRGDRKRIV
Description: PDSP Primary Binding target: ADRA2A - Compounds are tested at 10 uM concentration, plate are incubated at room temperature in the dark for 90 minutes. Reaction are stopped by vacuum filtration onto 0.3% polyethyleneimine soaked filter mats using Filtermate harvester. Scintilation cocktail is then melted onto microwave-dried filters on a hot plate and the radio activity is counted in Microbia counter.

Chain of 5-hydroxytryptamine receptor 1E (Homo sapiens) (P28566 whole entry): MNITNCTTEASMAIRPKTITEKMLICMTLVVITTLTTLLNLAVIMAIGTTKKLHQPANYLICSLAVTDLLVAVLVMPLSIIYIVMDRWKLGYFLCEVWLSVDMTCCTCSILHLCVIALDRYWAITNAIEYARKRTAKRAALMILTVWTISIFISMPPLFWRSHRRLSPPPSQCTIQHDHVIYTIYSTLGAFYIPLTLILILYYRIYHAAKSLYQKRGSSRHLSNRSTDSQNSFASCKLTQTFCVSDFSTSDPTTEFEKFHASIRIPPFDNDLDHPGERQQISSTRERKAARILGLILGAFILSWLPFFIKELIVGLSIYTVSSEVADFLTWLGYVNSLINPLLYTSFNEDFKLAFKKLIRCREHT
Chain of 5-hydroxytryptamine receptor 1B (Homo sapiens) (P28222 whole entry): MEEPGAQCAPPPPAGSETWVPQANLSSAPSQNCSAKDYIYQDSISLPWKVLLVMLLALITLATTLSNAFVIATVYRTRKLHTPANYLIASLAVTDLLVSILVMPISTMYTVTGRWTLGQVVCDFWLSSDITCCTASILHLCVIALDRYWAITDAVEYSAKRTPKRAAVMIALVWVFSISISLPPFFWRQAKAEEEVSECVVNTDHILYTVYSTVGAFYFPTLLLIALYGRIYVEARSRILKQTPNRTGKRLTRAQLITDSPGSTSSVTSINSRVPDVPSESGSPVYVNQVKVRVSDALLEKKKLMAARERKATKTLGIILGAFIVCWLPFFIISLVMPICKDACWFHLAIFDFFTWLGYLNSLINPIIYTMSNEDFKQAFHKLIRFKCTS
Chain of Beta-2 adrenergic receptor (Homo sapiens) (P07550 whole entry, looked up): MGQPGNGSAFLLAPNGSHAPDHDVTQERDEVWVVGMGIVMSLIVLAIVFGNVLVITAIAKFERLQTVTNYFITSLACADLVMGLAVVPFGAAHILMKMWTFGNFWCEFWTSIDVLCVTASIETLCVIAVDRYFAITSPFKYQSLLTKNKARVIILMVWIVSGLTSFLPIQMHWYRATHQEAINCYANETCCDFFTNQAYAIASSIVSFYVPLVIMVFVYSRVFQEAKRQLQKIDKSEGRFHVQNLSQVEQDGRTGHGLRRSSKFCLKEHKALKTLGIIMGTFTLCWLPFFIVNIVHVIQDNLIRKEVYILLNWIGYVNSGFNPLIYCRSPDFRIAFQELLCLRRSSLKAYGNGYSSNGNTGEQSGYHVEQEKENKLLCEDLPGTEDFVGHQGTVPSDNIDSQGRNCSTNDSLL
Chain of Sigma non-opioid intracellular receptor 1 (Homo sapiens) (Q99720 whole entry): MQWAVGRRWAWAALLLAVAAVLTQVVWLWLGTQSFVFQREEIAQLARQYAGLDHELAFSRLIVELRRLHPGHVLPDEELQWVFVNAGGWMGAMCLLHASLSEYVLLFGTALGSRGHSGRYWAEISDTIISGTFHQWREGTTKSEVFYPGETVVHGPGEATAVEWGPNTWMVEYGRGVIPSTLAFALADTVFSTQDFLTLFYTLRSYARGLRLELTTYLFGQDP
Chain of Sodium-dependent noradrenaline transporter (Homo sapiens) (P23975 whole entry): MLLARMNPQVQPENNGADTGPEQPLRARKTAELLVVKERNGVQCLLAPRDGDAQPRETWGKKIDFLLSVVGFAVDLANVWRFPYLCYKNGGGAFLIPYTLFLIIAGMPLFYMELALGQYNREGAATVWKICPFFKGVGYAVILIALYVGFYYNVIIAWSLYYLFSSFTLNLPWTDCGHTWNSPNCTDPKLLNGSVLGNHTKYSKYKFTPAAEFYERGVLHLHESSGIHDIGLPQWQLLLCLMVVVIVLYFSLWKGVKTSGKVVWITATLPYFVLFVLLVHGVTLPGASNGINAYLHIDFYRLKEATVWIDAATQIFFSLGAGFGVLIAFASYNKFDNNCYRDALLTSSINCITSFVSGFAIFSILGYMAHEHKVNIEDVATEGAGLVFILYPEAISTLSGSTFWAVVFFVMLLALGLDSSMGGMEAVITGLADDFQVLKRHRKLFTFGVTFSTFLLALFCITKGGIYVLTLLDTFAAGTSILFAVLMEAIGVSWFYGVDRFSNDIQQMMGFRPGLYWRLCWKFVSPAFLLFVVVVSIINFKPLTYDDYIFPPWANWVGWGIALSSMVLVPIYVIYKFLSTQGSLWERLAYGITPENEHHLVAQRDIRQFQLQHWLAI
Chain of D(2) dopamine receptor (Homo sapiens) (P14416 whole entry): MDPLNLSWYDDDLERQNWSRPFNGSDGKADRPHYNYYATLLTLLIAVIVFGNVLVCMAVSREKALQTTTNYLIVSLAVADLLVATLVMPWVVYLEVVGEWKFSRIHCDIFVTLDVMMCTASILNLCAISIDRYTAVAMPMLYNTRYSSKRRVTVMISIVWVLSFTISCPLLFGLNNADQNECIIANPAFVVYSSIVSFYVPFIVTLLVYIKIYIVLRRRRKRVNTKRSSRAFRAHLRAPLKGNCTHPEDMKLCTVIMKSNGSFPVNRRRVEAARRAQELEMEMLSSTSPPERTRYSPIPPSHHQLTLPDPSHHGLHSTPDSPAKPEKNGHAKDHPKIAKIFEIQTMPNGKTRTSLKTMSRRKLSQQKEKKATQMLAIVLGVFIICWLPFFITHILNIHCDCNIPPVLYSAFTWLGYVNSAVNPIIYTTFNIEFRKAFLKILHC

Row | Structure (SMILES) | inhibition [1] | inhibition [2] | inhibition [3] | inhibition [4] | inhibition [5] | inhibition [6] | inhibition [7] | inhibition [8] | inhibition [9] | inhibition [10] | inhibition [11]
1 | O=C(O)CC/C=C\C[C@@H]1CO[C@H](c2ccccc2Cl)O[C@@H]1c1ccccc1O | -6.03% | -1.8% | -7.17% | -6.67% | 4.25% |  |  |  |  |  | 
2 | Cc1cc(NC(=O)Nc2ccc(N(C)C)cc2)c2cc(F)cc(F)c2n1 | 16.5% | 96% | 9.7% | -4.12% | 52.2% | 39.2% | 3.9% | 6.71% | 35.9% |  | 
3 | O=c1ccn([C@@H]2O[C@H](COP(=O)(O)OP(=O)(O)O)[C@@H](O)[C@H]2O)c(=O)[nH]1 | -0.48% | 4.23% | -6.08% | 9.09% | 14.8% | -9.39% | -3.44% |  | 13.7% | 1.75% | 
4 | CCc1cc2c(c(CC)n1)CCC(=O)N2Cc1ccc(-c2ccccc2-c2nnn[nH]2)cc1 | -4.26% | 24.9% | 5.68% | -6.23% | 37.9% | -1.14% | 3.95% |  |  | 11.5% | -6.38%
5 | COc1ccc(OC(F)(F)F)cc1CN[C@H]1CCCN[C@H]1c1ccccc1 | -1.91% | 59.9% | 9.77% | 12.4% | 16.6% |  | 0.54% | 15.1% | 22.6% | 10% | 38.4%
6 | C[C@H](NC[C@H](O)CP(=O)(O)CC1CCCCC1)c1ccc(Cl)c(Cl)c1 | -1.65% | 49.6% | -5.96% | -8.21% | 10.4% | 16.6% |  | 8.86% |  |  | 
7 | Cc1nc(C(=O)N2CCC[C@H]2Cc2nnc(-c3ccccc3)o2)c(-c2ccccc2F)s1 | -2.08% | 35.9% | -1.4% | -8.85% | 14.6% | 29.8% |  | 26.4% |  |  | 
8 | CC(C)C[C@H](NC(=O)N1CCCCCC1)C(=O)N[C@H](Cc1cn(C)c2ccccc12)C(=O)N[C@H](Cc1ccccn1)C(=O)O | -6.68% | 4.12% | 0.48% |  | 2.53% |  |  |  |  | -2.58% | -6.57%
9 | Cc1c(OCc2cccc(-c3ccc(C(=O)O)cc3)c2)cc2c(c1C)C(=O)C(C1CCCC1)C2 (stereo unspecified) | -5.2% | -6.04% |  | 6.04% | -2.54% |  |  | 60% |  | 4.33% | 
10 | CCCCC#Cc1nc(NC)c2ncn([C@@H]3O[C@H](CO)[C@@H](O)[C@H]3O)c2n1 |  | -7.49% | -4.88% | 18.8% | -5.45% | 20% |  | -1.99% |  | -7.26% | 
11 | CCc1cc(C(C)=O)c(O)cc1OCCCCCC(C)(C)c1nn[nH]n1 |  | 61.4% | 12% |  | 8.34% | 47.9% | 15.2% | 19.5% |  | 14.7% | 14%
12 | C=CCN1C[C@H](C)N([C@H](c2ccc(C(=O)N(CC)CC)cc2)c2cccc(O)c2)C[C@H]1C | 3.05% | 87.3% | 25.4% | 19.5% | -2.85% |  | 9.01% |  | 13% | 27.1% | 17.8%
13 | O=C(Nc1ccc(Cl)cc1)Nc1cccc(-c2cccc(N3CCCC3)n2)c1 |  | 47.3% | -1.24% | 2.89% | 8.25% | -5.29% | 5.47% | 0.2% |  |  | 3.23%
14 | CCCCCNC(=O)NS(=O)(=O)c1cc([N+](=O)[O-])ccc1NC1CCCCC1 | -4.07% | 16% | -0.86% | 16.8% | 7.7% |  | -2.94% | 6.55% | 83.9% | 0.02% | 
15 | CC(C)(C)NC[C@H](O)COc1nsnc1N1CCOCC1 |  | 90.3% | 1.66% | 7.32% | 6.14% | 2.12% |  | 8.6% |  | 17.9% | 11.8%
16 | N#Cc1cccc(C(=O)Nc2cc(-c3ccccc3)nn2-c2ccccc2)c1 | 1.08% | 8.95% |  | 3.88% | -0.08% | 2.45% | 0.47% |  |  | 23.3% | -0.39%
17 | N#Cc1c(N)nc(SCC(N)=O)c(C#N)c1-c1ccc(OCC2CC2)cc1 |  | 62% |  |  |  | 10.4% | -9.96% | 0.73% |  |  | -1.71%
18 | CCCCN(CC)c1nc(C)nc2c1c(C)cn2-c1c(C)cc(C)cc1C | -7.68% | 28.8% | -1.9% | 18.4% | 4.03% |  | 39.7% | 16.5% | -0.04% | -9.74% | 4.06%
19 | Cc1cc(C)cc(C(=O)N(C)[C@H](Cc2ccc(-c3ccccc3)cc2)C(=O)N[C@@H](Cc2c[nH]c3ccccc23)C(=O)O)c1 | 3.37% | -6.1% | 11.1% |  |  |  | 7.27% | 7.51% |  |  | -8.09%
